The target of this experiment is T1, mouse LXA4R (lipoxin A4 receptor) (Mus musculus, UniProt O08790).
T1 sequence (O08790 1-351): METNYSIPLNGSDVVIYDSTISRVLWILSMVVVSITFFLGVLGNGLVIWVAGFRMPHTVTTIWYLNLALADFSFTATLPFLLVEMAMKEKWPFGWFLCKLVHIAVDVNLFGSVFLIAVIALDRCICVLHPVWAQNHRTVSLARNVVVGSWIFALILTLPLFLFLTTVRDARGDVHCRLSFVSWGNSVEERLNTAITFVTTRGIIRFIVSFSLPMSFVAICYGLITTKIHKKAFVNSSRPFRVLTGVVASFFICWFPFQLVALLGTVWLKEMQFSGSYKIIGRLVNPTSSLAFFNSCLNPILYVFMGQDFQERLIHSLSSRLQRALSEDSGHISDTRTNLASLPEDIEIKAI
The experiment can be described thus: [3H]LXA4 radioligand binding. It counts as cell-based.

Data on one compound can be found in article PMC2196289 (The Journal of Experimental Medicine, 1997).

For orientation: Kd means the free concentration of one partner at which half of the binding sites on the other are occupied at equilibrium, for simple one-to-one binding. Read a high Kd as a looser complex. `CCCCC[C@H](O)/C=C/C=C\C=C\C=C\[C@@H](O)[C@@H](O)CCCC(=O)O` [LXA4, 5(S),6(R),15(S)-trihydroxy7,9,13-trans-11-cis-eicosatetraenoic acid]: the Kd was 1.5 ± 0.6 nM.
